Entries after “also recorded” stand apart in the source; their conditions may differ.
How the values were obtained:
JNK = experiment: Endogenous phosphorylation of GST-c-Jun in PC12rtTA cells; format: cell-based; settings: for expression of the GST-c-Jun fusion construct: PC12rtTA cells
Description: FIGS. 7A, 7B and 7C are photographs of Western blots which illustrate that compound 1 analogues inhibit JNK activation and induce expression of HSP70. A: PC12^rtTA cells were transfected with RNAi directed against HSP70 or with control RNA and then 24 hours later were infected with 5 MOI of AdNRG or 50 MOI of the control virus AdLacZ. At time of infection, the cells were treated with 40 μM compound 2 or with a vehicle control, as indicated. After 30 hours, cells were lysed, normalized for protein levels, and analyzed for phosphorylated Jun, HSP70, HSP25 NRAGE and actin levels. B: PC12^rtTA cells were transfected with an expression construct driving GST-Jun. After 24 hours, cells were infected with 5 MOI of AdNRG or 50 MOI of the control virus AdLacZ or were left uninfected. After a further 24 hours, uninfected cells were left untreated or were exposed to 10 ng/ml TNF or 300 mM sorbitol for 15 minutes. Cells were then lysed, normalized for protein levels, and GST-jun was recovered by glutathione pullout and analyzed for phosphorylation using a antibody directed against c-Jun pSer63 by immunoblotting. Equivalent pullout of GST-Jun was confirmed by immunoblotting with an antibody directed against c-Jun and GST. C: PC12^rtTA cells were co-transfected with an expression construct driving GST-Jun and with RNAi directed against HSP70 or with control RNA, as indicated. After 24 hours, cells were infected with 5 MOI of AdNRG or 50 MOI of the control virus AdLacZ. At time of infection, the cells were treated with 40 μM compound 2 or with a vehicle control, as indicated. After 30 hours, cells were lysed, normalized for protein levels, and GST-jun was recovered by glutathione pullout and analyzed for phosphorylation using an antibody directed against c-Jun pSer63 by immunoblotting. Equivalent pullout of GST-Jun was confirmed by immunoblotting with an antibody directed against total Jun. Lysates levels of HSP70, HSP25, HSP40, NRAGE and actin was determined by immunoblot. […]
A causal link between HSP70 induction and JNK suppression, circumventing the problem of low-transfection efficiency of the PC12rtTA cells, was developed to assess JNK pathway activation specifically in the RNAi transfected subpopulation of PC12rtTA cells. […] We anticipated that the GST-c-Jun fusion protein would be readily recoverable from lysates and its phosphostatus would provide a sensitive read-out that reflects the level of JNK pathway activation in the subpopulation of cells which were transfected. […] GST-c-Jun was then recovered from lysates and its phosphostatus determined by immunoblotting. […] Thus, the phosphostatus of the GST-jun fusion protein provided a sensitive read-out that reflects the level of JNK pathway activation in transfected cells. […]

PC12^rtTA cells = experiment: p75NTR- or NRAGE-induced cell death of PC12rtTA cells (LDH release assay); format: cell-based; settings: for protection from Adp75- or AdNRG-induced cell death: increasing concentrations, LDH
Description: FIGS. 2A and 2B are graphs showing that compound 1 inhibits p75NTR or NRAGE induced JNK activation and cell death. Compound 1 inhibits NRAGE (A) or p75NTR (B) mediated cell death. PC12^rtTA cells were infected with recombinant adenoviruses expressing full-length NRAGE (AdNRG) at 5 MOI, full length p75NTR (Adp75) at 50 or 100 MOI, or the control protein β-galactosidase (AdLacZ) (at 5 MOI in (A) and 50 MOI in (B)). At time of infection, the cells were treated with an increasing concentration of compound 1, or with vehicle alone, as indicated. After 40 hours, cells were assayed for death using the lactate dehydrogenase (LDH) assay; untreated cells (Un) and cells treated with 1% Triton X-100 (Tx) were used to delineate the output range of the assay. Results are normalized relative to those obtained with 1% Triton (Tx), and represent the mean±standard deviation of a representative experiment performed in triplicate (*=P<0.005 relative to no compound 1).
PC12^rtTA were infected with adenoviruses encoding p75NTR (Adp75), NRAGE (AdNRG), or as a control, LacZ (AdLacZ), and were concurrently exposed to increasing concentrations of compound 1 for a period of 40 hours. Cell death was assessed using an LDH release assay. […] Treatment with 40 μM compound 1 reduced p75NTR- or NRAGE-induced cell death by greater than 90%.
(§1) Cell culture, infection, transfection and immunoblotting. Sympathetic neurons were maintained and deprived of NGF as previously described (Bamji et al., 1998; Ma et al., 1992). PC12^rtTA cells were maintained and infected as previously described (Majdan et al., 1997; Salehi et al., 2002); for NRAGE, […] doxycycline was added to all plates at time of infection. Wildtype and HSF1 nullizygous immortalized mouse embryonic fibroblasts (MEFs) were maintained in DMEM containing 10% fetal calf serum, 1 μM β-mercaptoethanol, 1% non-essential amino acids, 1% L-glutamine, 1% antimycotic solution and 1% sodium pyruvate (all from GibcoBRL). Sympathetic neuron survival was assessed using the MTS assay according to the manufacturer's instructions (Promega). Analysis of PC12 cell death was determined using a lactate dehydrogenase (LDH) assay (Roche) as per the manufacturer's instructions. Transfections using plasmids or RNAi were performed using Lipofectamine 2000. Immunoblotting was performed as previously described (Majdan et al., 1997; Salehi et al., 2002).

SCG neurons = experiment: NGF-withdrawal induced cell death of SCG neurons (MTS assay); format: cell-based, rat; settings: SCG neurons withdrawn from NGF, 48 hours
Description: FIG. 1 is a graph showing that compound 1 inhibits NGF-withdrawal induced cell death. Cultures of rat SCG neurons (see Materials and Methods) initially maintained in 10 ng/ml of NGF were withdrawn from NGF and maintained in media containing compound 1 at the concentrations indicated for 48 hours. Cellular viability was assayed using an MTS assay. (*=P<0.01 relative to no compound 1). Experiments were performed three times with identical results.
Survival of neonatal primary sympathetic neurons is dependent on trophic support provided by Neuronal Growth Factor (NGF) (reviewed in (Young et al., 2004)).
as §1

Row | SMILES | expression of the GST-c-Jun fusion construct (JNK) | reduction of p75NTR- or NRAGE-induced cell death (PC12^rtTA cells; 40 μM, 40 hours, LDH release) | toxic effect in cells infected with the LacZ control (PC12^rtTA cells; 80 μM) | inhibition of p75NTR- or NRAGE-induced apoptosis (PC12^rtTA cells; 80 μM (highest concentration tested)) | protection from Adp75- or AdNRG-induced cell death (PC12^rtTA cells; 40 hours) | protection from NGF-withdrawal induced cell death (SCG neurons) | ability to block GST-jun phosphorylation (JNK; 40 μM, RNAi directed against HSP70) | AdNRG-induced phosphorylation of GST-c-Jun (JNK; 40 μM, control siRNA)
1 | NS(=O)(=O)c1nn2cc(-c3ccccc3)nc2s1 [Compound 1] | significantly increased | greater than 90% | slight toxic effect | effectively inhibited apoptosis | strongly attenuated; also recorded: protected | protected; also recorded: inhibits |  | 
2 | NS(=O)(=O)c1nn2cc(-c3ccc(N4CCOCC4)cc3)nc2s1 [Compound 2] | without altering |  |  |  | protected | protected | almost completely lost | strongly inhibited

Source: patent US20090179638A1, “ASSAY FOR IDENTIFYING INHIBITORS OF NEURONAL APOPTOTIC PATHWAYS” (AEGERA THERAPEUTICS INC., priority 2006, published 2009)
